Measured values reported in US20100331239A1, “CD14 AND PEPTIDES THEREOF FOR PROTECTION OF CELLS AGAINST CELL DEATH” (THE MEDICAL RESEARCH, INFRASTRUCTURE AND HEALTH SERVICES, priority 2008, published 2010).

Key:
[1] = system: intracellular expression of MO2 in lymphocytes; test: Blocking of monocyte secretion of CD14 in vitro; intracellular MO2 staining in lymphocytes; assay type: cell-based; settings: cell secretion blocked; staining with anti MO2 antibodies
From the text: Further support for the concept that lymphocytes are capable of MO2 uptake is found in another experiment in which monocyte secretion of CD14 in vitro was blocked with Brefeldin A (a drug blocking the Golgi system thus inhibiting cell secretion).

[2] = system: human lymphocytes and human CD3 positive lymphocytes; test: Gliotoxin- or PMA-induced apoptosis of human mononuclear cells cultured overnight; FACS readout by DiOC6(3), 7AAD or cell size; assay type: cell-based; settings: for protection of lymphocytes from gliotoxin-induced apoptosis: CD3+ cultures, DioC6(3) staining, pMO2 0.5 or 0.25 mg/ml (0.2 and 0.1 mM), FIG. 11; for protective (anti-apoptotic) effect in vitro: DiOC6(3), 7AAD and cell size, FIGS. 11-13
Procedure: The changes in the mitochondria membrane potential can be measured with 3,3′-Dihexyloxacarbocyanine iodide (Dioc6(3)). The binding to the mitochondria membrane is relative to its potential, the highest binding occurs in live and intact cells; the lowest in dead cells. The binding is monitored by flow cytometry (FL1 channel).
After overnight culture (see below), cells are washed in PBS and are treated with 40 nM DiOC6(3) for 15 min at 37° C. Cells are then washed in PBS, stained for lymphocytes surface markers such as CD3/CD4/CD8, with the appropriate antibodies, for 30 min at 4° C., washed again in PBS, resuspended in 0.5 ml PBS and analyzed using the FACS (flow cytometry).
7AAD is a nucleic acid dye that binds to […] DNA, selectively to GC regions of DNA. No binding is observed in live cells. The binding to apoptotic cells is proportional to the degree of apoptosis and membrane damage. The 7AAD fluorescence is detected in the far-red range of the spectrum (650 nm), in the FL3 channel.
After overnight culture (see below), cells are washed with PBS and are stained with monoclonal antibodies (CD3/4/8) for 30 min at 4° C., then washed again in PBS. Cells are then incubated with 7AAD (20 μg/ml) for 20 min at 4° C. in the dark and directly analyzed using the FACS (flow cytometry).
As a result of the process of apoptosis, cells undergo a cytoplasm shrinkage, which can be detected as a decrease in cell size as observed by the forward scatter position of the cells analyzed by FACS; the smaller lymphocytes are apoptotic, the larger are intact.
Mononuclear cells, freshly obtained from peripheral blood on a Ficoll-Hypaque gradient are washed in PBS and resuspended in RPMI supplemented with 10% fetal calf serum, glutamine, antibiotics, non-essential amino acids and sodium pyruvate, at a concentration of 4×10^6 cells per ml. Cells (0.5 ml per well) are incubated overnight, in 24 well plates, in the presence of Gliotoxin (0.1 μg/ml) or PMA (1 μg/ml) and with pMO2 or pSCR peptides (0.2, 0.1, 0.05 mM equivalent to 0.5, 0.25 and 0.125 mg/ml); as a control DMSO—the diluent of the peptides—was used at the appropriate dilution or with recombinant human CD14 (10 and 5 μg/ml). For the experiments aimed at neutralizing the human rCD14, monoclonal antibodies against CD14 or against actin (as a control) are added, together with the CD14, at a final concentration of 15 μg/ml.
After the overnight incubation, cells are processed for apoptosis assessment using the methods described above.
The effect of recombinant human CD14 on the induction of apoptosis in human lymphocytes and in human CD3 positive lymphocytes was tested in vitro. Human mononuclear cells obtained from healthy individuals were incubated with apoptosis inducers, gliotoxin or PMA. […] Namely, recombinant human CD14 protects lymphocytes from gliotoxin-induced apoptosis. […] Two parameters were measured: cell size (A), and mitochondrial membrane potential determined by Dioc6 (3) binding (B). In (A) there is a shift to the left (characteristic to apoptotic cells) under gliotoxin treatment compared to “medium”, and a reversal to normal size in the presence of rhCD14. In (B) low binding of Dioc6 (3) in the presence of gliotoxin (characteristic to apoptotic cells) can be observed, and the effect is reversed by rhCD14.
In addition, in order to investigate the spectrum of effective concentrations of rhCD14, mononuclear cells were cultured overnight in the presence of gliotoxin and varying concentrations of rhCD14, ranging from 10 to 0.6 μg/ml. Apoptosis of CD3+ cells was measured with Dioc6(3). As expected, cells cultured without gliotoxin included a very low number of apoptotic cells, about 0.3% of the cultured cells.
As explained above, the epitopes recognized by this monoclonal MO2 antibody were mapped using a random peptide library, and one of the specific peptides (amino acids 139-160 of CD14; pMO2) was synthesized. […]

[3] = system: CD3 positive and CD3 negative cells; test: Intracellular binding / penetration of pMO2-biotin into mononuclear cells (streptavidin-APC, FACS); assay type: cell-based, human
Procedure: The cells were incubated for 3 hours with pMO2-biotin or DMSO (the peptide diluent) as a control. In order to visualize the biotin-labeled pMO2, the cells were washed and stained with anti-CD3 antibodies and fluorescent streptavidin (streptavidin-APC), with or without prior fixation and permeabilization.

[4] = 0.2 mM peptide, gliotoxin, FIGS. 14, 15

| Molecule | change of intracellular expression of MO2 in lymphocytes [1] | efficiency in protecting cells from apoptosis [2, 4] | protection of lymphocytes from gliotoxin-induced apoptosis [2] | protective (anti-apoptotic) effect in vitro ([2]; gliotoxin) | percent protection from apoptosis ([2]; 0.05 mM peptide, gliotoxin vs gliotoxin and control diluent, FIG. 14) | efficiency in protecting cells from apoptosis ([2]; 0.1 mM peptide, gliotoxin, FIG. 14) | penetration into lymphocytes ([3]; 3 hours incubation with pMO2-biotin, visualized only upon fixation and permeabilization, FIG. 16) | time of incubation for penetration into the majority of the lymphocytes ([3]; CD3 positive and CD3 negative cells in vitro, FIG. 17) [min] | effect on induced apoptosis of lymphocytes and of CD3 positive lymphocytes ([2]; apoptosis inducers gliotoxin or PMA, added during the incubation) | concentration at which inhibition of apoptosis is already effective ([2]; gliotoxin, overnight, rhCD14 titrated 10 to 0.6 μg/ml, CD3+ cells, Dioc6(3), FIG. 6) [µg/mL] |
| --- | --- | --- | --- | --- | --- | --- | --- | --- | --- | --- |
| C[C@H]1CCC/C=C/[C@@H]2C[C@H](O)C[C@H]2[C@H](O)/C=C/C(=O)O1 [Brefeldin A] | substantial decrease |  |  |  |  |  |  |  |  |  |
| ALGTSLARLSNRLWSVGTAWSR (listed as Homo sapiens) [pSCR, scrambled control peptide based on the same amino acids as pMO2, reference compound] |  | no protection | not | did not show any protective effect |  |  |  |  |  |  |
| ATGLALSSLRLRNVSWATGRSW [pMO2] |  | very high efficiency | equally protect | retain the anti-apoptotic effect of the whole recombinant human CD14 | about 45% | very high efficiency | penetrates lymphocytes | ≤ 10 |  |  |
| rhCD14: recombinant human soluble CD14 polypeptide, not anchored to the cell membrane (SEQ ID NO: 5) (protein, listed as Homo sapiens) MERASCLLLLLLPLVHVSATTPEPCELDDEDFRCVCNFSEPQPDWSEAFQCVSAVEVEIHAGGLNLEPFLKRVDADADPRQYADTVKALRVRRLTVGAAQVPAQLLVGALRVLAYSRLKELTLEDLKITGTMPPLPLEATGLALSSLRLRNVSWATGRSWLAELQQWLKPGLKVLSIAQAHSPAFSCEQVRAFPALTSLDLSDNPGLGERGLMAALCPHKFPAIQNLALRNTGMETPTGVCAALAAAGVQPHSLDLSHNSLRATVNPSAPRCMWSSALNSLNLSFAGLEQVPKGLPAKLRVLDLSCNRLNRAPQPDELPEVDNLTLDGNPFLVPGTALPHEGSMNSGVVPACARSTLSVGVSGTLVLLQGARGFA |  |  | equally protect |  |  |  |  |  | blocked significantly | 1.25 |
